Laboratory results: patent publication US10183950B2, “Thienopyrimidine inhibitors of atypical protein kinase C” (Cancer Research Technology Limited, priority 2011, dated 2019)

Molecular target: T1, full-length human PKCι (Homo sapiens, UniProt P41743)
T1 construct: Recombinant, full-length human PKCι expressed in Sf21 insect cells is also commercially available; purchased; host or cells: Sf21 insect cells
T1 sequence (P41743 1-596): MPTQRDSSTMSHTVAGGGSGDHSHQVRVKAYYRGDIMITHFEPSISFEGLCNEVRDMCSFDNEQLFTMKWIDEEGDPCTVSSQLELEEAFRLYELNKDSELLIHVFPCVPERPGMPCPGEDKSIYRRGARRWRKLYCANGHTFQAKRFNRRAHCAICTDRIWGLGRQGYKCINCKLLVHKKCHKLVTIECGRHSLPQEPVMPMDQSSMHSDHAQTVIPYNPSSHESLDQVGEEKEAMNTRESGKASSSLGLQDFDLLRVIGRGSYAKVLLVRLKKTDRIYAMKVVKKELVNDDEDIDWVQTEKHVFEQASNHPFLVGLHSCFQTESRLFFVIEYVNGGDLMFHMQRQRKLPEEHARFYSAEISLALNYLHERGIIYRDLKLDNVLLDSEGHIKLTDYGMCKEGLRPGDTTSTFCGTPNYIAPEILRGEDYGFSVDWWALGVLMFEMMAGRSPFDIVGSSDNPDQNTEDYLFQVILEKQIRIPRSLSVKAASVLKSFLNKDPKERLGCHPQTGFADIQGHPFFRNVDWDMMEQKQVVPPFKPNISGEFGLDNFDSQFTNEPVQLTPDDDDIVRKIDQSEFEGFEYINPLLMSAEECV
Assay: PKCι IC50 IMAP fluorescence polarisation assay, full-length enzyme
Format: biochemical
Details: full length PKCi at 15 μM ATP; read-out: IC50 in IMAP assay against full length PKCi

Structure (SMILES)	IC50
Cc1c(Br)sc2c(N[C@@H]3CCNC3)nc(-c3ccncc3)nc12 [compound 340, (6-Bromo-7-methyl-2-pyridin-4-yl-thieno[3,2-d]pyrimidin-4-yl)-(R)-pyrrolidin-3-yl-amine]	100 to 1000 nM
Brc1csc2c(NC[C@H]3CCCN3)nc(-c3ccncc3)nc12 [compound 342, (7-Bromo-2-pyridin-4-yl-thieno[3,2-d]pyrimidin-4-yl)-(R)-1-pyrrolidin-2-ylmethyl-amine]	10000 to 40000 nM
Brc1csc2c(N[C@H]3CCNC3)nc(-c3ccncc3)nc12 [compound 344, (7-Bromo-2-pyridin-4-yl-thieno[3,2-d]pyrimidin-4-yl)-(S)-pyrrolidin-3-yl-amine]	1000 to 10000 nM
CNCCNc1nc(-c2ccncc2)nc2c(Br)csc12 [compound 345, N-(7-Bromo-2-pyridin-4-yl-thieno[3,2-d]pyrimidin-4-yl)-N′-methyl-ethane-1,2-diamine]	1000 to 10000 nM
NCCNc1nc(-c2ccncc2)nc2c(Br)csc12 [compound 349, N*1*-(7-Bromo-2-pyridin-4-yl-thieno[3,2-d]pyrimidin-4-yl)-ethane-1,2-diamine]	100 to 1000 nM
CC(C)(C)c1ccc(-c2cc3nc(-c4ccncc4)nc(N4CCNCC4)c3s2)cc1 [compound 357, 6-(4-tert-Butyl-phenyl)-4-piperazin-1-yl-2-pyridin-4-yl-thieno[3,2-d]pyrimidine]	10000 to 40000 nM
Cc1sc2c(NC[C@@H](N)Cc3ccccc3)nc(-c3ccncc3)nc2c1-c1ccn[nH]1 [compound 388, (S)—N*1*-[6-methyl-7-(2H-pyrazol-3-yl)-2-pyridin-4-yl-thieno[3,2-d]pyrimidin-4-yl]-3-phenyl-propane-1,2-diamine]	< 100 nM
Cc1noc(C)c1-c1csc2c(NC[C@@H](N)Cc3ccccc3)nc(-c3ccncc3)nc12 [compound 392, N*1*-[7-(3,5-Dimethyl-isoxazol-4-yl)-2-pyridin-4-yl-thieno[3,2-d]pyrimidin-4-yl]-3-phenyl-propane-1,2-diamine]	1000 to 10000 nM
N[C@H](CNc1nc(-c2ccncc2)nc2c(-c3cn[nH]c3)csc12)Cc1ccccc1 [compound 393, (S)-3-Phenyl-N*1*-[7-(1H-pyrazol-4-yl)-2-pyridin-4-yl-thieno[3,2-d]pyrimidin-4-yl]-propane-1,2-diamine]	100 to 1000 nM
CC(C)Cn1cc(-c2csc3c(NC[C@@H](N)Cc4ccccc4)nc(-c4ccncc4)nc23)cn1 [compound 394, (S)-N*1*-[7-(1-Isobutyl-1H-pyrazol-4-yl)-2-pyridin-4-yl-thieno[3,2-d]pyrimidin-4-yl]-3-phenyl-propane-1,2-diamine]	1000 to 10000 nM
Cc1ccsc1-c1csc2c(NC[C@@H](N)Cc3ccccc3)nc(-c3ccncc3)nc12 [compound 396, (S)-N*1*-[7-(3-Methyl-thiophen-2-yl)-2-pyridin-4-yl-thieno[3,2-d]pyrimidin-4-yl]-3-phenyl-propane-1,2-diamine]	100 to 1000 nM
N[C@H](CNc1nc(-c2ccncc2)nc2c(-c3ccc[nH]3)csc12)Cc1ccccc1 [compound 397, (S)-3-Phenyl-N*1*-[2-pyridin-4-yl-7-(1H-pyrrol-2-yl)-thieno[3,2-d]pyrimidin-4-yl]-propane-1,2-diamine]	100 to 1000 nM
N[C@H](CNc1nc(-c2ccncc2)nc2c(-c3cc[nH]c3)csc12)Cc1ccccc1 [compound 398, (S)-3-Phenyl-N*1*-[2-pyridin-4-yl-7-(1H-pyrrol-3-yl)-thieno[3,2-d]pyrimidin-4-yl]-propane-1,2-diamine]	100 to 1000 nM
CC(C)(C)[Si](C)(C)C#Cc1csc2c(NC[C@@H](N)Cc3ccccc3)nc(-c3ccncc3)nc12 [compound 399, (S)-N*1*-{7-[(tert-Butyl-dimethyl-silanyl)-ethynyl]-2-pyridin-4-yl-thieno[3,2-d]pyrimidin-4-yl}-3-phenyl-propane-1,2-diamine]	1000 to 10000 nM
N[C@H](CNc1nc(-c2ccncc2)nc2c(C#Cc3ccccc3)csc12)Cc1ccccc1 [compound 402, (S)-3-Phenyl-N*1*-(7-phenylethynyl-2-pyridin-4-yl-thieno[3,2-d]pyrimidin-4-yl)-propane-1,2-diamine]	100 to 1000 nM
c1cc(-c2nc(N[C@@H]3CCNC3)c3scc(-c4ccn[nH]4)c3n2)ccn1 [compound 403, [7-(2H-Pyrazol-3-yl)-2-pyridin-4-yl-thieno[3,2-d]pyrimidin-4-yl]-(R)-pyrrolidin-3-yl-amine]	< 100 nM

Second part, the compound after the results:

IC50	Structure (SMILES)
10000 to 40000 nM	Brc1csc2c(NC[C@@H]3CCCN3)nc(-c3ccncc3)nc12 [compound 341, (7-Bromo-2-pyridin-4-yl-thieno[3,2-d]pyrimidin-4-yl)-(S)-1-pyrrolidin-2-ylmethyl-amine]
100 to 1000 nM	Brc1csc2c(N[C@@H]3CCCNC3)nc(-c3ccncc3)nc12 [compound 343, (7-Bromo-2-pyridin-4-yl-thieno[3,2-d]pyrimidin-4-yl)-(R)-piperidin-3-yl-amine]
1000 to 10000 nM	CC(C)C[C@H](N)CNc1nc(-c2ccncc2)nc2c(Br)csc12 [compound 346, (S)-N*1*-(7-Bromo-2-pyridin-4-yl-thieno[3,2-d]pyrimidin-4-yl)-4-methyl-pentane-1,2-diamine]
100 to 1000 nM	CC(C)[C@H](N)CNc1nc(-c2ccncc2)nc2c(Br)csc12 [compound 347, (S)-N*1*-(7-Bromo-2-pyridin-4-yl-thieno[3,2-d]pyrimidin-4-yl)-3-methyl-butane-1,2-diamine]
100 to 1000 nM	N[C@H](CNc1nc(-c2ccncc2)nc2c(Br)csc12)CC1CCCCC1 [compound 348, (S)-N*1*-(7-Bromo-2-pyridin-4-yl-thieno[3,2-d]pyrimidin-4-yl)-3-cyclohexyl-propane-1,2-diamine]
100 to 1000 nM	Brc1csc2c(N3CCNCC3)nc(-c3ccncc3)nc12 [compound 350, 7-Bromo-4-piperazin-1-yl-2-pyridin-4-yl-thieno[3,2-d]pyrimidine]
< 100 nM	Brc1csc2c(N[C@@H]3CCNC3)nc(-c3ccncc3)nc12 [compound 351, (7-Bromo-2-pyridin-4-yl-thieno[3,2-d]pyrimidin-4-yl)-(R)-pyrrolidin-3-yl-amine]
1000 to 10000 nM	Fc1cnccc1-c1nc(N[C@@H]2CCNC2)c2scc(Br)c2n1 [compound 352, [7-Bromo-2-(3-fluoro-pyridin-4-yl)-thieno[3,2-d]pyrimidin-4-yl]-(R)-pyrrolidin-3-yl-amine]
10000 to 40000 nM	C[C@H](N)CNc1nc(-c2ccncc2F)nc2ccsc12 [compound 353, (S)-N*1*-[2-(3-Fluoro-pyridin-4-yl)-thieno[3,2-d]pyrimidin-4-yl]-propane-1,2-diamine]
10000 to 40000 nM	Fc1cnccc1-c1nc(N[C@@H]2CCNC2)c2sccc2n1 [compound 354, [2-(3-Fluoro-pyridin-4-yl)-thieno[3,2-d]pyrimidin-4-yl]-(R)-pyrrolidin-3-yl-amine]
1000 to 10000 nM	N[C@H](CNc1nc(-c2ccncc2F)nc2ccsc12)Cc1ccccc1 [compound 355, (S)-N*1*-[2-(3-Fluoro-pyridin-4-yl)-thieno[3,2-d]pyrimidin-4-yl]-3-phenyl-propane-1,2-diamine]
1000 to 10000 nM	Cc1c(-c2ccn[nH]2)sc2c(N[C@@H]3CCNC3)nc(-c3ccncc3)nc12 [compound 389, [7-Methyl-6-(2H-pyrazol-3-yl)-2-pyridin-4-yl-thieno[3,2-d]pyrimidin-4-yl]-(R)-pyrrolidin-3-yl-amine]
< 100 nM	N[C@H](CNc1nc(-c2ccncc2)nc2c(-c3ccn[nH]3)csc12)Cc1ccccc1 [compound 390, (S)-3-Phenyl-N*1*-[7-(2H-pyrazol-3-yl)-2-pyridin-4-yl-thieno[3,2-d]pyrimidin-4-yl]-propane-1,2-diamine]
1000 to 10000 nM	Cn1nccc1-c1csc2c(NC[C@@H](N)Cc3ccccc3)nc(-c3ccncc3)nc12 [compound 391, (S)-N*1*-[7-(2-Methyl-2H-pyrazol-3-yl)-2-pyridin-4-yl-thieno[3,2-d]pyrimidin-4-yl]-3-phenyl-propane-1,2-diamine]
1000 to 10000 nM	Cc1csc(-c2csc3c(NC[C@@H](N)Cc4ccccc4)nc(-c4ccncc4)nc23)c1 [compound 395, (S)-N*1*-[7-(4-Methyl-thiophen-2-yl)-2-pyridin-4-yl-thieno[3,2-d]pyrimidin-4-yl]-3-phenyl-propane-1,2-diamine]
< 100 nM	COCC#Cc1csc2c(NC[C@@H](N)Cc3ccccc3)nc(-c3ccncc3)nc12 [compound 400, (S)-N*1*-[7-(3-Methoxy-prop-1-ynyl)-2-pyridin-4-yl-thieno[3,2-d]pyrimidin-4-yl]-3-phenyl-propane-1,2-diamine]
100 to 1000 nM	CCCC#Cc1csc2c(NC[C@@H](N)Cc3ccccc3)nc(-c3ccncc3)nc12 [compound 401, (S)-N*1*-(7-Pent-1-ynyl-2-pyridin-4-yl-thieno[3,2-d]pyrimidin-4-yl)-3-phenyl-propane-1,2-diamine]
100 to 1000 nM	COC/C=C/c1csc2c(NC[C@@H](N)Cc3ccccc3)nc(-c3ccncc3)nc12 [compound 404, (S)-N*1*-[7-((E)-3-Methoxy-propenyl)-2-pyridin-4-yl-thieno[3,2-d]pyrimidin-4-yl]-3-phenyl-propane-1,2-diamine]
